The source of these data is patent US7935702B2, “Substituted biaryl quinolin-4-ylamine analogues” (Neurogen Corporation, priority 2004, dated 2011).

The first test deals with T1, human capsaicin receptor (Homo sapiens, UniProt Q8NER1).
T1 construct: expressed in transfected cells
T1 sequence (Q8NER1 whole entry): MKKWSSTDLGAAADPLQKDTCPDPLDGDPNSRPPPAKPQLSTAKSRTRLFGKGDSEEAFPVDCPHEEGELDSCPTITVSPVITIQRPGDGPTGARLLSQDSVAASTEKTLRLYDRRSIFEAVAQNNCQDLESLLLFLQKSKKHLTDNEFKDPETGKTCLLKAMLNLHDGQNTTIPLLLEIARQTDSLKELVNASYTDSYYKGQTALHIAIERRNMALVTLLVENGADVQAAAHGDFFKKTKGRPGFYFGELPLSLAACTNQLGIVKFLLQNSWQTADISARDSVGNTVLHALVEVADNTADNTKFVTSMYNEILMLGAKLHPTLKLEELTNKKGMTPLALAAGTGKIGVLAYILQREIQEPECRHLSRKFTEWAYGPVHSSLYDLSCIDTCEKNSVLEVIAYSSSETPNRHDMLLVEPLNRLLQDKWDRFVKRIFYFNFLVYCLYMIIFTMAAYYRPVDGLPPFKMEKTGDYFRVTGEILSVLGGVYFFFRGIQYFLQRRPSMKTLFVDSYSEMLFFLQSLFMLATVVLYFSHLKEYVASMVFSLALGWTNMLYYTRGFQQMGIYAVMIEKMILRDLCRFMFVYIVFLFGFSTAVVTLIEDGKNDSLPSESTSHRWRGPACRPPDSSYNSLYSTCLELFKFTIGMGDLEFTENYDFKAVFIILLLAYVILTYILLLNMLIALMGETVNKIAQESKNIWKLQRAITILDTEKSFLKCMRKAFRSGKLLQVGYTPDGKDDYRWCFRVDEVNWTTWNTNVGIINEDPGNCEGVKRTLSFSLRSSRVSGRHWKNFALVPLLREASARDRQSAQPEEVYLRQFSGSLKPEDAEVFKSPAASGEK
Briefly: Calcium mobilization assay, determination of antagonist activity (Example 6). In kind it is cell-based. Set-up: IC50 determined as described in Example 6: scale not given here. Conditions: Table I; IC50 determined as described in Example 6; read-out: IC50. How it is done: A cDNA encoding full length human capsaicin receptor (SEQ ID NO:1, 2 or 3 of U.S. Pat. No. 6,482,611) is subcloned in the plasmid pBK-CMV (Stratagene, La Jolla, Calif.) for recombinant expression in mammalian cells.
Human embryonic kidney (HEK293) cells are transfected with the pBK-CMV expression construct encoding the full length human capsaicin receptor using standard methods. The transfected cells are selected for two weeks in media containing G418 (400 μg/ml) to obtain a pool of stably transfected cells. Independent clones are isolated from this pool by limiting dilution to obtain clonal stable cell lines for use in subsequent experiments.
This Example illustrates representative calcium mobilization assays for use in evaluating test compounds for agonist and antagonist activity.
Cells transfected with expression plasmids (as described in Example 4) and thereby expressing human capsaicin receptor are seeded and grown to 70-90% confluency in FALCON black-walled, clear-bottomed 96-well plates (#3904, BECTON-DICKINSON, Franklin Lakes, N.J.). The culture medium is emptied from the 96 well plates and FLUO-3 AM calcium sensitive dye (Molecular Probes, Eugene, Oreg.) is added to each well (dye solution: 1 mg FLUO-3 AM, 440 μL DMSO and 440 μl 20% pluronic acid in DMSO, diluted 1:250 in Krebs-Ringer HEPES (KRH) buffer (25 mM HEPES, 5 mM KCl, 0.96 mM NaH2PO4, 1 mM MgSO4, 2 mM CaCl2, 5 mM glucose, 1 mM probenecid, pH 7.4), 50 μl diluted solution per well). Plates are covered with aluminum foil and incubated at 37° C. for 1-2 hours in an environment containing 5% CO2. After the incubation, the dye is emptied from the plates, and the cells are washed once with KRH buffer, and resuspended in KRH buffer.
To measure the ability of a test compound to agonize or antagonize a calcium mobilization response in cells expressing capsaicin receptors to capsaicin or other vanilloid agonist, the EC50 of the agonist capsaicin is first determined. An additional 20 μl of KRH buffer and 1 μl DMSO is added to each well of cells, prepared as described above. 100 μl capsaicin in KRH buffer is automatically transferred by the FLIPR instrument to each well. Capsaicin-induced calcium mobilization is monitored using either FLUOROSKAN ASCENT (Labsystems; Franklin, Mass.) or FLIPR (fluorometric imaging plate reader system; Molecular Devices, Sunnyvale, Calif.) instruments. Data obtained between 30 and 60 seconds after agonist application are used to generate an 8-point concentration response curve, with final capsaicin concentrations of 1 nM to 3 μM. KALEIDAGRAPH software (Synergy Software, Reading, Pa.) is used to fit the data to the equation: y=a*(1/(1+(b/x)^c)) to determine the 50% excitatory concentration (EC50) for the response. In this equation, y is the maximum fluorescence signal, x is the concentration of the agonist or antagonist (in this case, capsaicin), a is the Emax, b corresponds to the EC50 value and c is the Hill coefficient. Determination of Agonist Activity
Test compounds are dissolved in DMSO, diluted in 20 μl KRH buffer so that the final concentration of test compounds in the assay well is between 1 μM and 5 μM, and added to cells prepared as described above. The 96 well plates containing prepared cells and test compounds are incubated in the dark, at room temperature for 0.5 to 6 hours. It is important that the incubation not continue beyond 6 hours. Just prior to determining the fluorescence response, 100 μl capsaicin in KRH buffer at twice the EC50 concentration determined as described above is automatically added by the FLIPR instrument to each well of the 96 well plate for a final sample volume of 200 μl and a final capsaicin concentration equal to the EC50. The final concentration of test compounds in the assay wells is between 1 μM and 5 μM. […]
On the technique in general: A change in cytosolic calcium serves as a functional read-out for many receptors and channels.
For `Oc1ccc(C(F)(F)F)c(-c2ccc3c(Nc4ccc(C(F)(F)F)cn4)ccnc3n2)n1` [compound 21, 5-Trifluoromethyl-6-[5-(5-trifluoromethyl-pyridin-2-ylamino)-[1,8]naphthyridin-2-yl]-pyridin-2-ol], the half-inhibitory concentration (IC50) (commonly the concentration needed to halve the response being measured) is < 1000 nM.

`O=C(O)c1cnc(-c2ccc3c(Nc4ccc(C(F)(F)F)cn4)ccnc3n2)c(C(F)(F)F)c1` [compound 22, 5-Trifluoromethyl-6-[5-(5-trifluoromethyl-pyridin-2-ylamino)-[1,8]naphthyridin-2-yl]-nicotinic acid]: the IC50 is < 1000 nM.

Regarding `FC(F)(F)c1ccc(Nc2ccnc3nc(-c4nc(Cl)ccc4C(F)(F)F)ccc23)nc1` [compound 23, [7-(6-Chloro-3-trifluoromethyl-pyridin-2-yl)-[1,8]naphthyridin-4-yl]-(5-trifluoromethyl-pyridin-2-yl)-amine], the IC50 was < 1000 nM.

For `N#Cc1ccc(C(F)(F)F)c(-c2ccc3c(Nc4ccc(C(F)(F)F)cn4)ccnc3n2)n1` [compound 24, 5-Trifluoromethyl-6-[5-(5-trifluoromethyl-pyridin-2-ylamino)-[1,8]naphthyridin-2-yl]-pyridine-2-carbonitrile], the IC50 was < 1000 nM.

Regarding `NC(=O)c1ccc(C(F)(F)F)c(-c2ccc3c(Nc4ccc(C(F)(F)F)cn4)ccnc3n2)n1` [compound 25, 5-Trifluoromethyl-6-[5-(5-trifluoromethyl-pyridin-2-ylamino)-[1,8]naphthyridin-2-yl]-pyridine-2-carboxylic acid amide], the IC50 is < 1000 nM.

With `O=C(O)c1ccc(C(F)(F)F)c(-c2ccc3c(Nc4ccc(C(F)(F)F)cn4)ccnc3n2)n1` [compound 26, 5-Trifluoromethyl-6-[5-(5-trifluoromethyl-pyridin-2-ylamino)-[1,8]naphthyridin-2-yl]-pyridine-2-carboxylic acid], the IC50 was < 1000 nM.

For the compound `Cc1ccc(C(F)(F)F)c(-c2ccc3c(Nc4ccc(C(F)(F)F)cn4)ccnc3n2)n1` [compound 28, [7-(6-Methyl-3-trifluoromethyl-pyridin-2-yl)-[1,8]naphthyridin-4-yl]-(5-trifluoromethyl-pyridin-2-yl)-amine], the concentration for half-maximal inhibition (IC50) is < 1000 nM.

For the compound `CC(=O)c1ccc(C(F)(F)F)c(-c2ccc3c(Nc4ccc(C(F)(F)F)cn4)ccnc3n2)n1` [compound 29, 1-{5-Trifluoromethyl-6-[5-(5-trifluoromethyl-pyridin-2-ylamino)-[1,8]naphthyridin-2-yl]-pyridin-2-yl}-ethanone], the IC50 was < 1000 nM.

As for `FC(F)(F)c1ccc(Nc2ccnc3nc(-c4ncc(Br)cc4C(F)(F)F)cnc23)nc1` [compound 31, [3-(5-Bromo-3-trifluoromethyl-pyridin-2-yl)-pyrido[2,3-b]pyrazin-8-yl]-(5-trifluoromethyl-pyridin-2-yl)-amine], the IC50 is < 1000 nM.

`N#Cc1cnc(-c2cnc3c(Nc4ccc(C(F)(F)F)cn4)ccnc3n2)c(C(F)(F)F)c1` [compound 32, 5-Trifluoromethyl-6-[8-(5-trifluoromethyl-pyridin-2-ylamino)-pyrido[2,3-b]pyrazin-3-yl]-nicotinonitrile]: the IC50 was < 1000 nM.

Still in this test, the particulars now being: cells expressing human capsaicin receptor; capsaicin at EC50.
Regarding `N#Cc1cnc(-c2cnc3c(Nc4ccc(C(F)(F)F)cn4)ccnc3n2)c(C(F)(F)F)c1` [Compound 11, 5-(Trifluoromethyl)-6-(8-(5-(trifluoromethyl)pyridin-2-ylamino)pyrido[2,3-b]pyrazin-3-yl)nicotinonitrile], the “IC50 determined as described in Example 6” value is given as “less”.

Staying with this test, now noted: cells expressing human capsaicin receptor; capsaicin at EC50; read-out: IC50 determined as described in Example 6.
As for `Cc1cc(F)cnc1-c1ccc2c(Nc3ccc(C(F)(F)F)cn3)ccnc2n1` [Compound 2, 7-(5-Fluoro-3-methylpyridin-2-yl)-N-(5-(trifluoromethyl)ipyridin-2-yl)-1,8-naphthyridin-4-amine], the IC50 was < 1000 nM.

`Nc1cnc(-c2ccc3c(Nc4ccc(C(F)(F)F)cn4)ccnc3n2)c(C(F)(F)F)c1` [Compound 3, 7-(5-Amino-3-(trifluoromethyl)pyridin-2-yl)-N-(5-(trifluoromethyl)pyridin-2-yl)-1,8-naphthyridin-4-amine]: the IC50 is < 1000 nM.

As to `NC(=O)c1cnc(-c2cnc3c(Nc4ccc(C(F)(F)F)cn4)ccnc3n2)c(C(F)(F)F)c1` [Compound 4, 5-Trifluoromethyl-6-[8-(5-trifluoromethyl-pyridin-2-ylamino)-pyrido[2,3-b]pyrazin-3-yl]-nicotinamide], the IC50 is < 1000 nM.

Turning to `COc1ccc(C(F)(F)F)c(-c2ccc3c(Nc4ccc(C(F)(F)F)cn4)ccnc3n2)n1` [Compound 5, [7-(6-Methoxy-3-trifluoromethyl-pyridin-2-yl)-[1,8]naphthyridin-4-yl]-(5-trifluoromethyl-pyridin-2-yl)-amine], the IC50 is < 1000 nM.

For the compound `COc1ccc(C(F)(F)F)c(-c2ccc3c(Nc4ncc(C(F)(F)F)cn4)ccnc3n2)n1` [Compound 6, [7-(6-Methoxy-3-trifluoromethyl-pyridin-2-yl)-[1,8]naphthyridin-4-yl]-(5-trifluoromethyl-pyrimidin-2-yl)-amine], the IC50 is < 1000 nM.

Turning to `N#Cc1cnc(-c2ccc3c(Nc4ccc(C(F)(F)F)cn4)ccnc3n2)c(C(F)(F)F)c1` [Compound 7, 5-Trifluoromethyl-6-[5-(5-trifluoromethyl-pyridin-2-ylamino)-[1,8]naphthyridin-2-yl]-nicotinonitrile], the concentration for half-maximal inhibition (IC50) was < 1000 nM.

With `NC(=O)c1cnc(-c2ccc3c(Nc4ccc(C(F)(F)F)cn4)ccnc3n2)c(C(F)(F)F)c1` [Compound 8, 5-Trifluoromethyl-6-[5-(5-trifluoromethyl-pyridin-2-ylamino)-[1,8]naphthyridin-2-yl]-nicotinamide], the IC50 was < 1000 nM.

Consider `CCOc1nc(Nc2ccnc3nc(-c4ncc(C(N)=O)cc4C(F)(F)F)cnc23)ccc1C(F)(F)F` [Compound 9, 6-(8-(6-Ethoxy-5-(trifluoromethyl)pyridin-2-ylamino)pyrido[2,3-b]pyrazin-3-yl)-5-(trifluoromethyl)nicotinamide], for which the IC50 was < 1000 nM.

For the compound `FC(F)(F)c1ccc(Nc2ccnc3nc(-c4ncc(Br)cc4C(F)(F)F)cnc23)nc1` [Compound 10, 3-(5-Bromo-3-(trifluoromethyl)pyridin-2-yl)-N-(5-(trifluoromethyl)pyridin-2-yl)pyrido[2,3-b]pyrazin-8-amine], the IC50 was < 1000 nM.

For `O=C(O)c1cnc(-c2cnc3c(Nc4ccc(C(F)(F)F)cn4)ccnc3n2)c(C(F)(F)F)c1` [Compound 13, 5-(Trifluoromethyl)-6-(8-(5-(trifluoromethyl)pyridin-2-ylamino)pyrido[2,3-b]pyrazin-3-yl)nicotinic acid], the IC50 is < 1000 nM.

For `NC(=O)c1cnc(-c2cnc3c(Nc4cnc5ccccc5n4)ccnc3n2)c(C(F)(F)F)c1` [Compound 14, 6-(8-(Quinoxalin-2-ylamino)pyrido[2,3-b]pyrazin-3-yl)-5-(trifluoromethyl)nicotinamide], the IC50 is < 1000 nM.

`NC(=O)c1cnc(-c2cnc3c(Nc4cnc(C(F)(F)F)cn4)ccnc3n2)c(C(F)(F)F)c1` [Compound 15, 5-(Trifluoromethyl)-6-(8-(5-(trifluoromethyl)pyrazin-2-ylamino)pyrido[2,3-b]pyrazin-3-yl)nicotinamide]: the IC50 was < 1000 nM.

For the compound `CCOc1cc(C(F)(F)F)c(-c2cnc3c(Nc4ccc(C(F)(F)F)cn4)ccnc3n2)nn1` [Compound 16], the IC50 is < 1000 nM.

For the compound `FC(F)(F)c1ccc(Nc2ccnc3nc(-c4nnc(N5CCOCC5)cc4C(F)(F)F)cnc23)nc1` [Compound 19], the IC50 was < 1000 nM.

For `FC(F)(F)c1ccc(Nc2ccnc3nc(-c4nnc(NCc5cccnc5)cc4C(F)(F)F)cnc23)nc1` [Compound 20], the IC50 is < 1000 nM.
